# Laboratory results published in patent US9365559B2, “Crystal form of Dabrafenib and preparation method of use thereof” (Hangzhou Pushai Pharmaceutical Technology Co., LTD., priority 2013, dated 2016).
# Entries after “also recorded” stand apart in the source; their conditions may differ.
# What was measured:
# Format in all cases: physicochemical
# [1] = Dynamic vapor sorption (DVS) hygroscopicity; settings: from DVS, 20~80% RH
# Procedure: The dynamic vapor sorption analysis (DVS) data are collected by TA Instruments Q5000 TGA; the instrument control software is Thermal Advantage and the analysis software is Universal Analysis. Generally, take 1˜10 mg of the sample and place it in a platinum pan, and the weight changes of the sample are recorded during the course of the relative humidity changing from 0% to 80% and then to 0%. According to the specifics of the samples, different adsorption and desorption steps may be used.
# The hygroscopicity is obtained by DVS testing of the weight changes between 20%-80% RH.
# [2] = Storage stability test (XRPD before and after storing)
# From the text: The storage stability test is: storing the sample under constant conditions (i.e. constant humidity or constant temperature) for a certain time, and then comparing the XRPDs before and after storing.
# [3] = Competition test (suspension of equal amounts stirred overnight, XRPD); settings: for Competition test, comparison of stability (position in the rank order): in pure water, room temperature, stirred overnight
# From the text: The competition test is: take equal amount of the samples, and respectively place them in isopropanol or in a mixture of water (pure water) and ethanol (wherein the volume percentage of ethanol is 0%, 20%, 50%, 80% and 100%, respectively) to form a suspension, stir it overnight at room temperature, then compare their XRPDs.
# [4] = Crystal form stability on stirring in or exposure to water, aqueous ethanol or other solvent; settings: for crystal form stability when stirred: stirred in water or aqueous ethanol solution at room temperature or high temperature (40° C.); for crystal form stability in water: in water or other water containing system(s)
# [5] = Particle size distribution (PSD), laser diffraction
# From the text: The particle size distribution (PSD) plot is obtained using Microtrac S3500 laser diffraction particle size analyzer. The method parameters are as follows: flow velocity of the dispersant is 50%; the dispersant is water (added with 2% tween-80); the sample refractivity is 1.58; the laser source wavelength is 780 nm; and the integral mode is volume.
# (§1) The morphology comparison is obtained by PLM testing of particle shape and PSD testing of particle size.
# [6] = Polarized light microscopy (PLM) morphology
# From the text: Polarized Light Microscope (PLM) plots are collected from XP-500E polarized light microscope (by Shanghai Changfang Optical Instrument Co., Ltd). Place a small amount of powder sample on a slide glass, drip some mineral oil to disperse the powder sample, place the cover slip, then place the sample on the loading table of XP-500E polarized light microscope, choose the appropriate magnitude to observe the morphology of the sample and take pictures thereof.
# as §1
# [7] = Flowability observed during the experiments
# [8] = Thermogravimetric analysis (TGA), thermal stability
# Procedure: The thermogravimetric analysis (TGA) data are collected by TA Instruments Q500 TGA; the instrument control software is Thermal Advantage and the analysis software is Universal Analysis. Generally, take 5˜15 mg sample and place it in a platinum pan, adopt the segmental high-resolution testing mode, and under the protection of 50 mL/min dry N2, heat the sample from room temperature to 300° C. at the heating rate of 10° C./min, the weight changes of the sample during the course are recorded by TA software simultaneously.
# [9] = Crystal form stability during wet granulation tablet preparation (XRPD); settings: for crystal form of API after physical blending with excipients: XRPD of Sample 1 vs Sample 3, lactose, microcrystalline cellulose, polyethylene glycol 6000; for crystal form of API in the wet granulation process: XRPD of Sample 2 vs Sample 1, 50% aqueous ethanol solution
# From the text: The Known Crystal Form 1, the Known Crystal Form 2 and Crystal Form VI of the present invention are examined for their stability during the formulation preparation of the wet granulation process.
# The preparation process of the tablet is a parallel experiment.
# (1) Blend API (selected from the Known Crystal Form 1, the Known Crystal Form 2 or Crystal Form VI of the present invention), lactose (monohydrate) and microcrystalline cellulose uniformly.
# (2) Make the above mixture into soft materials by using an appropriate amount of 50% aqueous ethanol solution, screen to produce the wet granules and then dry the wet granules.
# (3) Granulate the dried sample, blend with polyethylene glycol 6000 uniformly and then compress into tablets.
# Respectively, take XRPD tests on the following samples obtained in the formulation preparing process of the Known Crystal Form 1, the Known Crystal Form 2 and Crystal Form VI of the present invention: (Sample 1) the sample obtained by physically blending API, lactose, microcrystalline cellulose with polyethylene glycol 6000 according to the preparation formula; (Sample 2) the sample obtained by granulating with API, lactose, microcrystalline cellulose and polyethylene glycol 6000 according to the “wet granulation” process (excluding the sample obtained after the Step (3)); (Sample 3) excluding API, the sample obtained by physically blending lactose, microcrystalline cellulose with polyethylene glycol 6000 according to the preparation formula.
# [10] = Crystal form stability in capsules prepared by wet granulation (XRPD); settings: capsules prepared by wet granulation process; XRPD
# From the text: The preparation of the capsules containing the crystal forms of the present invention.
# 3) Blend API (selected from the Known Crystal Form 1, the Known Crystal Form 2 and Crystal Form VI of the present invention), microcrystalline cellulose (avicel) and sodium carboxymethyl starch (SSG) uniformly.
# 4) Make the above mixture into soft materials by using an appropriate amount of 50% aqueous ethanol solution, then screen to produce the wet granules.
# 5) Dry the wet granules, grind and disperse uniformly and then transfer them into the capsules.
# [11] = Crystal form stability in oral suspension (XRPD); settings: oral suspension; XRPD
# Procedure: The preparation of the oral suspension containing the crystal forms of the present invention.
# API (selected from Crystal Form VI of Dabrafenib of the present invention): 2 g;
# Blend API (selected from Crystal Form VI of Dabrafenib of the present invention), cocklebur gum, sodium dihydrogen citrate, methylparaben, syrupus simplex and orange flavor, add water to 1,000 mL and stir the mixture uniformly. After that, divide the solution into 100 bottles with 20 mg API in each bottle.
# [12] = dispersant water with 2% tween-80
SMILES,hygroscopicity (in words) [1],"Competition test, comparison of stability (position in the rank order) [3]",crystal form stability when stirred [4],Morphology (particle shape) [6],crystal form stability in water [4],crystal form of API after physical blending with excipients [9],crystal form of API in the wet granulation process [9],crystal form stability in the wet granulation process or in the suspension [9],crystal form in capsules [10],crystal form in oral suspension [11],also measured
"CC(C)(C)c1nc(-c2cccc(NS(=O)(=O)c3c(F)cccc3F)c2F)c(-c2ccnc(N)n2)s1 [Crystal Form VII, N-[3-[5-(2-aminopyrimidin-4-yl)-2-(tert-butyl)thiazo-4-lyl]-2-fluorophenyl]-2,6-difluorobenzenesulfonamide]",low hygroscopicity; also recorded: lower than that of the Known Crystal Form 1,more stable than the Known Crystal Form 1; also recorded: >The Known Crystal Form 2,convert to Crystal Form VI of the present invention,rod-shaped crystals; also recorded: good morphology; also recorded: rod-shaped particles in large size; also recorded: Rod shape,,,,,,,"Storage stability (crystal form by XRPD) ([2]; stored 3 months in desiccator at room temperature, room temperature-97% RH, -75% RH, -44% RH or oven of 40° C.): its crystal form does not change; Storage stability (crystal form) ([2]; stored for a long time in desiccator at room temperature, room temperature-97% RH, -75% RH, -44% RH or oven of 40° C.): stable when stored for a long time; particle size compared with known crystal forms [5]: larger particle size than those of the Known Crystal Form 1 and the Known Crystal Form 2; also recorded: larger than that of the Known Crystal Form 1 and the Known Crystal Form 2; D10 [5, 12]: 91 μm; D50 [5, 12]: 207 μm; flowability [7]: good and good flowability; decomposition temperature ([8]; TGA, 10° C./min, dry N2): 270 °C; stability at high temperature (in words) ([8]; conclusion from DSC/TGA test results): very stable at high temperature"
"CC(C)(C)c1nc(-c2cccc(NS(=O)(=O)c3c(F)cccc3F)c2F)c(-c2ccnc(N)n2)s1 [Known Crystal Form 1, N-{3-[5-(2-amino-4-pyrimidinyl)-2-(1,1-dimethylethyl)-1,3-thiazol-4-yl]-2-fluorophenyl}-2,6-difluorobenzenesulfonamide, reference compound]",some hygroscopicity,>Crystal Form VII of the present,convert to Crystal Form VI of the present invention; also recorded: unstable,small block-shaped crystals,readily converts to other form(s),keeps unchanged,partially or totally converted to Crystal Form VI of the present invention,unstable,unstable and has converted to Crystal Form VI of the present invention,unstable and has converted to Crystal Form VI of the present invention,"Competition test, comparison of stability ([3]; in isopropanol or ethanol): Form 1 >The other three crystal forms."
"CC(C)(C)c1nc(-c2cccc(NS(=O)(=O)c3c(F)cccc3F)c2F)c(-c2ccnc(N)n2)s1 [Known Crystal Form 2, N-[3-[5-(2-aminopyrimidin-4-yl)-2-(tert-butyl)thiazo-4-lyl]-2-fluorophenyl]-2,6-difluorobenzenesulfonamide, reference compound]",,invention >The Known Crystal Form 2,convert to Crystal Form VI of the present invention; also recorded: unstable,small block-shaped crystals,would convert to other form(s),keeps unchanged,partially or totally converted to Crystal Form VI of the present invention,unstable,unstable and has converted to Crystal Form VI of the present invention,unstable and has converted to Crystal Form VI of the present invention,crystal form conversion in dichloromethane ([4]; stirring in dichloromethane followed by filtering and drying): can convert to the Known Crystal Form 1
"CC(C)(C)c1nc(-c2cccc(NS(=O)(=O)c3c(F)cccc3F)c2F)c(-c2ccnc(N)n2)s1 [Known Crystal Form 3, N-[3-[5-(2-aminopyrimidin-4-yl)-2-(tert-butyl)thiazo-4-lyl]-2-fluorophenyl]-2,6-difluorobenzenesulfonamide, reference compound]",,,,,may convert to other form(s),,,,,,crystal form stability on standing ([2]; placed at room temperature): extremely unstable; also recorded: can convert to the Known Crystal Form 1; also recorded: converts to the Known Crystal Form 1
